The test system of data set [1] is Escherichia coli. Kind of data set: Antibacterial activity against Escherichia coli assessed as bacterial growth inhibition by microdilution method. The class given is functional.
Data set [2] is described as follows: Half life in mouse at 20 mg/kg, po. The class given is ADME, organism-based. To be noted: in vivo.
A short description of data set [3]: AUC(0 to infinity) in mouse at 20 mg/kg, po. Further details: dose 20 mg/kg, route po. To be noted: in vivo. The class given is ADME, organism-based.
Data set [4] concerns Escherichia coli. Nature of the data set: Antibacterial activity against Escherichia coli KC-14 infected in po dosed mouse assessed as bacterial growth inhibition. In kind it is functional. To be noted: Escherichia coli, KC-14, po, read-out: ED50.
Data set [5] can be described thus: Cmax in mouse at 20 mg/kg, po. Further details: dose 20 mg/kg, route po. The class given is ADME, organism-based. The note with it: in vivo.
Data set [6] concerns Escherichia coli. Kind of data set: Antibacterial activity against Escherichia coli KC-14 assessed as bacterial growth inhibition. The class given is functional.
Data set [7] relates to Escherichia coli. Nature of the data set: Antibacterial activity against Escherichia coli assessed as bacterial growth inhibition by broth microdilution method. The class given is functional. In general terms: In broth dilution the organism is exposed to a series of concentrations in liquid medium.
The test system of data set [8] is Escherichia coli. Kind of data set: Antibacterial activity against Escherichia coli assessed as bacterial growth inhibition measured after 24 hrs by broth micro dilution method. The class given is functional.
Data set [9] relates to Escherichia coli. Kind of data set: Antibacterial activity against Escherichia coli NIHJ JC-2 assessed as bacterial growth inhibition measured after 24 hrs by agar dilution method. In kind it is functional. A general note: In agar dilution, organisms are placed on agar that contains the substance at set levels.
In data set [10] the test system is Escherichia coli. Kind of data set: Antibacterial activity against Escherichia coli 2010-05 assessed as bacterial growth inhibition measured after 24 hrs by agar dilution method. In kind it is functional.
Data set [11] has as its system Escherichia coli. Nature of the data set: Antibacterial activity against Escherichia coli NIHJ assessed as bacterial growth inhibition measured after 24 hrs by agar dilution method. The class given is functional.
For data set [12], the system named is Escherichia coli. Kind of data set: Antibacterial activity against Escherichia coli 2010-29 assessed as bacterial growth inhibition measured after 24 hrs by agar dilution method. In kind it is functional.
The subject of data set [13] is Escherichia coli. Kind of data set: Antibacterial activity against Escherichia coli assessed as bacterial growth inhibition incubated for 16 to 24 hrs by absorbance analysis. The class given is functional. To be noted: time 16-24 hrs.
In data set [14] the test system is Escherichia coli. Nature of the data set: Antibacterial activity against Escherichia coli NCTC 10418 assessed as bacterial growth inhibition incubated for 18 to 20 hrs by agar dilution method. In kind it is functional. To be noted: time 18-20 hrs.
The test system of data set [15] is Escherichia coli. Nature of the data set: Antibacterial activity against Escherichia coli ATCC 35218 assessed as bacterial growth inhibition incubated for 18 hrs by agar dilution method. In kind it is functional.

Data on 26 compounds can be found in ChEMBL document CHEMBL5244219, “Recent developments of quinolone-based derivatives and their activities against Escherichia coli” (Eur J Med Chem, 2018).

Structures are written as SMILES. Values after ≈ are worked out from the molar mass of the structure shown.

What is called MIC is the least concentration at which growth counts as inhibited. As a reminder, the half-life is the time needed for the level to fall by half in the phase considered. A low value points to fast loss. Usually AUC(0-inf) stands for total exposure, with the tail of the curve extrapolated. Read a low AUC(0-inf) as low exposure. A word on the ED50: it is the midpoint of the dose-response relation. The term Cmax denotes the peak of the concentration-time curve.

Consider `CC(=O)NC[C@H]1CN(c2ccc(N[C@@H]3CCN(c4nc5c(cc4F)c(=O)c(C(=O)O)cn5C4CC4)C3)c(F)c2)C(=O)O1`, for which the MIC with Escherichia coli [1] was at least 0.5 µg/mL.

In the case of `CC1Sc2c(C(=O)O)c(=O)c3cc(F)c(N4CCN(C)CC4)cc3n21` (configuration not stated), the half-life in data set [2] was 2.8 h. This compound had an AUC(0-inf) in data set [3] of 2600 ng·h/mL. Also, the ED50 in the data set on Escherichia coli [4] was 0.97 mg/kg. Moreover, the Cmax in data set [5] was 940 ng/mL. Also, the MIC with Escherichia coli [6] turned out to be 0.025 µg/mL (≈ 0.0688 µM). As to `CCn1cc(C(=O)NNS(=O)(=O)c2ccc(C)cc2)c(=O)c2ccccc21`, the MIC in the data set on Escherichia coli [7] is 0.0625 µg/mL (≈ 0.162 µM). The same measure, in the same setting: the result for `CCn1cc(C(=O)NN)c(=O)c2cc(F)ccc21` reads 0.0625 µg/mL (≈ 0.251 µM).

For the compound `CCn1cc(C(=O)NN)c(=O)c2cc(Cl)ccc21`, the MIC with Escherichia coli [7] worked out at 0.0625 µg/mL (≈ 0.235 µM). For `CC(=O)NC[C@H]1CN(c2ccc(N3CCN(c4cc5c(cc4F)c(=O)c(C(=O)O)cn5C4CC4)CC3)c(F)c2)C(=O)O1`, the MIC with Escherichia coli [1] was at least 0.5 µg/mL. Same read-out and setting: next, `CC(=O)NC[C@H]1CN(c2ccc(N3CCN(c4nc5c(cc4F)c(=O)c(C(=O)O)cn5C4CC4)CC3)c(F)c2)C(=O)O1`: at least 0.5 µg/mL. With `CCn1cc(C(=O)O)c(=O)c2cc(F)c(-n3cc(CO[C@H]4O[C@H](COC(C)=O)[C@@H](OC(C)=O)[C@H](OC(C)=O)[C@H]4OC(C)=O)nn3)c(F)c21`, in the data set with Escherichia coli [8], the minimum inhibitory concentration (MIC) was above 6.25 µg/mL. On to `CCn1cc(C(=O)O)c(=O)c2cc(F)c(-n3cc(CO[C@H]4O[C@H](COC(C)=O)[C@@H](OC(C)=O)[C@H](OC(C)=O)[C@H]4NC(C)=O)nn3)c(F)c21`, for which the MIC in the data set with Escherichia coli [8] is above 6.25 µg/mL. The same measure, in the same setting: next, `CCn1cc(C(=O)O)c(=O)c2cc(F)c(-n3cc(CO[C@H]4O[C@@H](C)[C@H](OC(C)=O)[C@@H](OC(C)=O)[C@H]4OC(C)=O)nn3)c(F)c21`: above 6.25 µg/mL; `CCn1cc(C(=O)O)c(=O)c2cc(F)c(-n3cc(CO[C@H]4OC[C@@H](OC(C)=O)[C@@H](OC(C)=O)[C@H]4OC(C)=O)nn3)c(F)c21`: above 6.25 µg/mL; `CCn1cc(C(=O)O)c(=O)c2cc(F)c(-n3cc(CO[C@H]4O[C@H](COC(C)=O)[C@@H](OC(C)=O)[C@H](OC(C)=O)[C@@H]4OC(C)=O)nn3)c(F)c21`: above 6.25 µg/mL. For the compound `CCn1cc(C(=O)O)c(=O)c2cc(F)c(-n3cc(CO[C@H]4O[C@H](COC(C)=O)[C@H](OC(C)=O)[C@H](OC(C)=O)[C@H]4OC(C)=O)nn3)c(F)c21`, in the data set with Escherichia coli [8], the MIC was above 6.25 µg/mL. On the same count and under the same terms, next, `CCn1cc(C(=O)O)c(=O)c2cc(F)c(-n3cc(CO[C@H]4OC[C@@H](OC(C)=O)[C@@H](OC(C)=O)[C@@H]4OC(C)=O)nn3)c(F)c21`: above 6.25 µg/mL; `CCn1cc(C(=O)O)c(=O)c2cc(F)c(-n3cc(CO[C@H]4OC[C@@H](OC(C)=O)[C@H](OC(C)=O)[C@H]4OC(C)=O)nn3)c(F)c21`: above 6.25 µg/mL.

On to `CC1(N)CN(c2c(F)cc3c(=O)c(C(=O)O)cn(-c4cc(N)c(F)cc4CO)c3c2Cl)C1`, for which the minimum inhibitory concentration (MIC) in the data set on Escherichia coli [9] came to 0.008 µg/mL (≈ 0.0172 µM); in the data set on Escherichia coli [10], 1 µg/mL (≈ 2.15 µM); in the data set with Escherichia coli [11] it was 0.008 µg/mL (≈ 0.0172 µM); with Escherichia coli [12], 1 µg/mL (≈ 2.15 µM). With `Cc1ccc2[nH]c(C)c(CC(=O)O)c(=O)c2c1`, the MIC in the data set on Escherichia coli [13] came out at 8.97 µg/mL (≈ 38.8 µM).

With `Nc1cc(-n2cc(C(=O)O)c(=O)c3cc(F)c(N4CC(O)C4)c(Cl)c32)c(CO)cc1F`, the MIC in the data set on Escherichia coli [9] worked out at 0.008 µg/mL (≈ 0.0177 µM); with Escherichia coli [10], 1 µg/mL (≈ 2.21 µM); in the data set on Escherichia coli [11], 0.008 µg/mL (≈ 0.0177 µM); with Escherichia coli [12] it was 1 µg/mL (≈ 2.21 µM).

Regarding `CCn1cc(C(=O)O)c(=O)c2cc(F)c(N3CCN(CN4C(=O)C(=O)c5cc(Cl)ccc54)CC3)cc21`, the MIC with Escherichia coli [14] was at most 0.018 µg/mL. On to `CCn1cc(C(=O)O)c(=O)c2cc(F)c(N3CCN(CN4C(=O)C(=O)c5ccccc54)CC3)cc21`, for which the MIC in the data set with Escherichia coli [14] was at most 0.018 µg/mL.

For the compound `Cc1[nH]c2cc3ccccc3cc2c(=O)c1CC(=O)O`, the MIC with Escherichia coli [13] was found to be 8.97 µg/mL (≈ 33.6 µM). For the compound `CC(=O)NC[C@H]1CN(c2ccc(N[C@@H]3CCN(c4cc5c(cc4F)c(=O)c(C(=O)O)cn5C4CC4)C3)c(F)c2)C(=O)O1`, in the data set on Escherichia coli [1], the minimum inhibitory concentration (MIC) is at least 0.5 µg/mL. As for `CNC1(C)CN(c2c(F)cc3c(=O)c(C(=O)O)cn(-c4cc(N)c(F)cc4CO)c3c2Cl)C1`, the MIC in the data set with Escherichia coli [9] was found to be 0.008 µg/mL (≈ 0.0167 µM); in the data set on Escherichia coli [10] it was 1 µg/mL (≈ 2.09 µM); with Escherichia coli [11], 0.008 µg/mL (≈ 0.0167 µM); in the data set with Escherichia coli [12], 1 µg/mL (≈ 2.09 µM). As to `CC(=O)NC[C@H]1CN(c2ccc(NC3CN(c4nc5c(cc4F)c(=O)c(C(=O)O)cn5C4CC4)C3)c(F)c2)C(=O)O1`, the MIC with Escherichia coli [1] is at least 0.5 µg/mL. Consider `CO/N=C1\CN(c2nc3c(cc2F)c(=O)c(C(=O)O)cn3[C@@H]2C[C@@H]2F)CC1CN` (some centres not stated), for which the minimum inhibitory concentration (MIC) in the data set with Escherichia coli [15] was below 0.008 µg/mL. For `CNC1CN(c2c(F)c(C)c3c(=O)c(C(=O)O)cn(-c4cc(N)c(F)cc4CO)c3c2Cl)C1`, the MIC is 0.008 µg/mL (≈ 0.0167 µM) with Escherichia coli [9], 1 µg/mL (≈ 2.09 µM) in the data set on Escherichia coli [10], 0.008 µg/mL (≈ 0.0167 µM) in the data set on Escherichia coli [11] and 1 µg/mL (≈ 2.09 µM) with Escherichia coli [12].
